Laboratory results as given in ChEMBL document CHEMBL1201862, “PubChem BioAssay data set” (2004).
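How tested: cells in 96-well plates exposed to compound for 48 hours at five concentrations. The concentration for 50% growth inhibition is given as GI50.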 Activity calls are given as the source filed them. Rule as the data show it: active = GI50 up to about 1.1 µM and inactive = higher.

Tests used:
Experiment in all cases: DTP human tumour cell line panel, 48 h
[1] = test system: EKVX
[2] = test system: DMS-114
[3] = test system: HCT-116
[4] = test system: LXFL 529
[5] = test system: RXF 631
[6] = test system: SF-295
[7] = test system: SF-268
[8] = test system: IGROV-1
[9] = test system: HL-60
[10] = test system: SW-620
[11] = test system: SN12C
[12] = test system: UO-31
[13] = test system: K562
[14] = test system: NCI-H226
[15] = test system: CCRF-CEM
[16] = test system: SF-539
[17] = test system: Malme-3M
[18] = test system: KM-20L2
[19] = test system: MOLT-4
[20] = test system: DMS-273
[21] = test system: UACC-62
[22] = test system: OVCAR-3
[23] = test system: LOX IMVI
[24] = test system: SK-MEL-2
[25] = test system: UACC-257
[26] = test system: M19-MEL
[27] = test system: TK-10
[28] = test system: HCT-15
[29] = test system: HCC 2998
[30] = test system: RPMI-8226
[31] = test system: NCI-H460
[32] = test system: SK-MEL-28
[33] = test system: 786-0
[34] = test system: U-251
[35] = test system: OVCAR-8
[36] = test system: COLO 205
[37] = test system: ACHN
[38] = test system: OVCAR-4
[39] = test system: HOP-62
[40] = test system: SNB-19
[41] = test system: XF498
[42] = test system: NCI-H23
[43] = test system: SR
[44] = test system: HT-29
[45] = test system: A549
[46] = test system: A498
[47] = test system: M14
[48] = test system: RXF 393
[49] = test system: SK-MEL-5
[50] = test system: HOP-92
[51] = test system: NCI-H522
[52] = test system: HOP-18
[53] = test system: CAKI-1
[54] = test system: SK-OV-3
[55] = test system: DLD-1
[56] = test system: KM12
[57] = test system: SNB-75
[58] = test system: OVCAR-5

In the case of `C=C1[C@@H]2CCC(C)(C)[C@H]1CCC(=O)[C@@H]2C(=O)OC`, the GI50 [1] is reported as > 100 µM (inactive), the GI50 [2] is reported as > 100 µM (inactive) and the GI50 [3] is reported as > 100 µM (inactive). The GI50 [4] was > 100 µM (inactive), the GI50 [5] was > 100 µM (inactive) and the GI50 [6] was > 100 µM (inactive). The GI50 [7] was > 100 µM (inactive), the GI50 [8] was > 100 µM (inactive) and the GI50 [9] was > 100 µM (inactive). For the same compound, the GI50 [10] was > 100 µM (inactive), the GI50 [11] was > 100 µM (inactive) and the GI50 [12] was > 100 µM (inactive). The GI50 [13] was > 100 µM (inactive), the GI50 [14] was > 100 µM (inactive) and the GI50 [15] was > 100 µM (inactive). The GI50 [16] was > 100 µM (inactive), the GI50 [17] was > 100 µM (inactive) and the GI50 [18] was > 100 µM (inactive). For the same compound, the GI50 [19] was > 100 µM (inactive), the GI50 [20] was > 100 µM (inactive) and the GI50 [21] was > 100 µM (inactive). For the same compound, the GI50 [22] was > 100 µM (inactive), the GI50 [23] was > 100 µM (inactive) and the GI50 [24] was > 100 µM (inactive). The GI50 [25] was > 100 µM (inactive), the GI50 [26] was > 100 µM (inactive) and the GI50 [27] was > 100 µM (inactive). The GI50 [28] was greater than 100 µM, the GI50 [29] was > 100 µM (inactive) and the GI50 [30] was > 100 µM (inactive). For the same compound, the GI50 [31] was > 100 µM (inactive), the GI50 [32] was > 100 µM (inactive) and the GI50 [33] was > 100 µM (inactive). For the same compound, the GI50 [34] was > 100 µM (inactive), the GI50 [35] was > 100 µM (inactive) and the GI50 [36] was > 100 µM (inactive). For the same compound, the GI50 [37] was > 100 µM (inactive), the GI50 [38] was > 100 µM (inactive) and the GI50 [39] was > 100 µM (inactive). The GI50 [40] was > 100 µM (inactive), the GI50 [41] was > 100 µM (inactive) and the GI50 [42] was > 100 µM (inactive). The GI50 [43] was > 100 µM (inactive), the GI50 [44] was > 100 µM (inactive) and the GI50 [45] was > 100 µM (inactive). The GI50 [46] was > 100 µM (inactive), the GI50 [47] was > 100 µM (inactive) and the GI50 [48] was > 100 µM (inactive). For the same compound, the GI50 [49] was > 100 µM (inactive).
In the case of `Cc1cccc(C(C)C)c1NC(=O)/C(Cc1c([N+](=O)[O-])cccc1[N+](=O)[O-])=N/NC(=O)CC#N`, the GI50 [1] is reported as 7.05 µM (inactive), the GI50 [2] is reported as > 100 µM (inactive) and the GI50 [3] is reported as > 100 µM (inactive). The GI50 [50] was 41.6 µM (inactive), the GI50 [51] was > 100 µM (inactive) and the GI50 [52] was > 100 µM (inactive). The GI50 [4] was > 100 µM (inactive), the GI50 [5] was > 100 µM (inactive) and the GI50 [6] was > 100 µM (inactive). The GI50 [53] was > 100 µM (inactive), the GI50 [54] was > 100 µM (inactive) and the GI50 [7] was > 100 µM (inactive). The GI50 [8] was > 100 µM (inactive), the GI50 [9] was > 100 µM (inactive) and the GI50 [10] was > 100 µM (inactive). The GI50 [55] was > 100 µM (inactive), the GI50 [12] was > 100 µM (inactive) and the GI50 [13] was > 100 µM (inactive). For the same compound, the GI50 [14] was > 100 µM (inactive), the GI50 [15] was > 100 µM (inactive) and the GI50 [16] was > 100 µM (inactive). The GI50 [56] was > 100 µM (inactive), the GI50 [17] was > 100 µM (inactive) and the GI50 [18] was > 100 µM (inactive). For the same compound, the GI50 [19] was > 100 µM (inactive), the GI50 [20] was > 100 µM (inactive) and the GI50 [21] was > 100 µM (inactive). For the same compound, the GI50 [22] was > 100 µM (inactive), the GI50 [23] was > 100 µM (inactive) and the GI50 [24] was > 100 µM (inactive). For the same compound, the GI50 [26] was > 100 µM (inactive), the GI50 [27] was 80.9 µM (inactive) and the GI50 [28] was greater than 100 µM. For the same compound, the GI50 [29] was > 100 µM (inactive), the GI50 [31] was > 100 µM (inactive) and the GI50 [32] was > 100 µM (inactive). For the same compound, the GI50 [33] was > 100 µM (inactive), the GI50 [57] was > 100 µM (inactive) and the GI50 [58] was > 100 µM (inactive). For the same compound, the GI50 [36] was > 100 µM (inactive), the GI50 [37] was > 100 µM (inactive) and the GI50 [40] was > 100 µM (inactive). For the same compound, the GI50 [44] was > 100 µM (inactive), the GI50 [45] was > 100 µM (inactive) and the GI50 [46] was 44.4 µM (inactive). For the same compound, the GI50 [47] was > 100 µM (inactive), the GI50 [48] was > 100 µM (inactive) and the GI50 [49] was > 100 µM (inactive).
